Converted amounts (≈) assume the structure as drawn. Marks after values point to notes of the source that are not given here. Non-standard residues stand in square brackets, D forms with d. Residues, ends and D or L forms follow the SMILES beside them. d2Nal = N[C@H](Cc1ccc2ccccc2c1)C(=O)O
How the values were obtained:
[1] = test system: Candida tropicalis ATCC 750; assay type: cell-based
Excerpt: (§1) According to the Standards of Clinical and Laboratory Standards Institute (CLSI) of the USA for antimicrobial drug susceptibility test operation standards, the micronutrient serial twofold dilution method was used further determine MICs of 30 AMPs (S/N: LV-1 to LV-30) 10 clinically common sensitive strains and 6 fungi in clinical practice. The experiment was repeated 5 times in parallel.

[2] = test system: Bacillus subtilis ATCC 6633; assay type: cell-based
Excerpt: as §1

[3] = test system: Enterococcus ATCC 29212; assay type: cell-based
Excerpt: as §1

[4] = test system: Candida krusei ATCC 6258; assay type: cell-based
Excerpt: as §1

[5] = test system: Serratia marcescens ATCC 29021; assay type: cell-based
Excerpt: as §1

[6] = test system: Staphylococcus aureus ATCC 25923; assay type: cell-based
Excerpt: as §1

[7] = test system: Corynebacterium ATCC 7715; assay type: cell-based
Excerpt: as §1

[8] = test system: Candida albicans ATCC MYA-2876; assay type: cell-based
Excerpt: as §1

[9] = test system: Candida utilis ATCC 9950; assay type: cell-based
Excerpt: as §1

[10] = test system: Salmonella typhimurium ATCC 14028; assay type: cell-based
Excerpt: as §1

[11] = test system: Candida glabrata ATCC 15126; assay type: cell-based
Excerpt: as §1

[12] = test system: Pseudomonas aeruginosa ATCC 27853; assay type: cell-based
Excerpt: as §1

[13] = test system: Escherichia coli ATCC 25922; assay type: cell-based
Excerpt: as §1

[14] = test system: Trichophyton ATCC MYA-4438; assay type: cell-based
Excerpt: as §1

[15] = test system: Klebsiella pneumoniae ATCC 700603; assay type: cell-based
Excerpt: as §1

[16] = test system: Staphylococcus aureus (NRS 384); conditions: NRS 384, 3 h
Description: Trypsin (250 U/mg, pH=8.0) and AMPs (LV-1 to LV-30) were mixed in a ratio of 1:10 (w/w) and added to a reaction buffer (0.2 M sodium phosphate, 1 mM CaCl2), pH 7.5), and then incubated at 37° C. for 3 h.

[17] = test system: carbapenem-resistant Escherichia coli (CREC); assay type: cell-based; conditions: carbapenem-resistant (CREC)
Excerpt: (§2) According to the Standards of Clinical and Laboratory Standards Institute (CLSI) of the USA for antimicrobial drug susceptibility test operation standards, the micronutrient serial twofold dilution method was used further determine MICs of the antimicrobial peptides LV-1 to LV-30 against 5 clinically common drug-resistant bacterial strains. The experiment was repeated 5 times in parallel. […] The tested drug-resistant strains included Methicillin-resistant Staphylococcus aureus (MRSA), carbapenem-resistant Escherichia coli (CREC), vancomycin-resistant Enterococcus (VRE), carbapenem-resistant Pseudomonas aeruginosa (CRPA), and carbapenem-resistant Klebsiella pneumoniae (CRKP).

[18] = test system: carbapenem-resistant Klebsiella pneumoniae (CRKP); assay type: cell-based; conditions: carbapenem-resistant (CRKP)
Excerpt: as §2

[19] = test system: Methicillin-resistant Staphylococcus aureus (MRSA); assay type: cell-based; conditions: Methicillin-resistant
Excerpt: as §2

[20] = test system: vancomycin-resistant Enterococcus (VRE); assay type: cell-based
Excerpt: as §2

[21] = test system: carbapenem-resistant Pseudomonas aeruginosa (CRPA); assay type: cell-based; conditions: carbapenem-resistant (CRPA)
Excerpt: as §2

[22] = Serum stability assay (residual level by RP-HPLC); conditions: human
[23] = test system: Pseudomonas aeruginosa ATCC 27853; assay: Injectable formulations on mice infected with peritonitis; assay type: in vivo, ICR mice; conditions: twice a day for 3 days; for Number of mice that died on each day after infection: day 1 / Number of mice that died on each day after infection: day 2 / Number of mice that died on each day after infection: day 3 / Number of mice that died on each day after infection: day 4 / Number of mice that died on each day after infection: day 5 / Average survival times (Days): n = 10; for Average survival times (Days): observed for 14 d
How it was run: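 ICR mice of both sexes (10 per group) infected intraperitoneally with 0.2 mL P. aeruginosa ATCC 27853 at 1×10^9 CFU/mL. Injectable formulations dosed by body weight via tail vein twice daily for 3 days; deaths and survival time recorded over 14 d.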

CC(=O)N[C@H](CCCNC(=N)N)C(=O)N[C@H](CCCCN)C(=O)N[C@H](CC(C)C)C(=O)N[C@H](CC(C)C)C(=O)N[C@H](Cc1ccccc1)C(=O)N[C@H](CCCNC(=N)N)C(=O)N[C@H](CC(C)C)C(=O)N[C@H](CCCCN)C(=O)N[C@H](Cc1ccccc1)C(=O)N[C@H](CCCNC(=N)N)C(=O)N[C@H](CCCCN)C(N)=O [LV-2] (Ac-[dR][dK][dL][dL][dF][dR][dL][dK][dF][dR][dK]-NH2)
MIC Candida tropicalis ATCC 750 [1]: 16 µg/mL (≈ 10.3 µM)
MIC Bacillus subtilis ATCC 6633 [2]: 2 µg/mL (≈ 1.29 µM)
MIC Enterococcus ATCC 29212 [3]: 4 µg/mL (≈ 2.59 µM)
MIC Candida krusei ATCC 6258 [4]: 16 µg/mL (≈ 10.3 µM)
MIC Serratia marcescens ATCC 29021 [5]: 4 µg/mL (≈ 2.59 µM)
MIC Staphylococcus aureus ATCC 25923 [6]: 2 µg/mL (≈ 1.29 µM)
MIC Corynebacterium ATCC 7715 [7]: 4 µg/mL (≈ 2.59 µM)
MIC Candida albicans ATCC MYA-2876 [8]: 16 µg/mL (≈ 10.3 µM)
MIC Candida utilis ATCC 9950 [9]: 8 µg/mL (≈ 5.17 µM)
MIC Salmonella typhimurium ATCC 14028 [10]: 2 µg/mL (≈ 1.29 µM)
MIC Candida glabrata ATCC 15126 [11]: 16 µg/mL (≈ 10.3 µM)
MIC Pseudomonas aeruginosa ATCC 27853 [12]: 1 µg/mL (≈ 0.647 µM)
MIC Escherichia coli ATCC 25922 [13]: 1 µg/mL (≈ 0.647 µM)
MIC Trichophyton ATCC MYA-4438 [14]: 8 µg/mL (≈ 5.17 µM)
MIC Klebsiella pneumoniae ATCC 700603 [15]: 4 µg/mL (≈ 2.59 µM)
Trypsin MIC [16]: 1 µg/mL
MIC CREC [17]: 4 µg/mL (≈ 2.59 µM)
MIC CRKP [18]: 2 µg/mL (≈ 1.29 µM)
MIC MRSA [19]: 2 µg/mL (≈ 1.29 µM)
MIC VRE [20]: 2 µg/mL (≈ 1.29 µM)
MIC CRPA [21]: 8 µg/mL (≈ 5.17 µM)
remaining at 12 h, 0.91 mg/mL [22]: 97.4%
Number of mice that died on each day after infection: day 1 ([23]; 0.2 mg/kg via tail vein): 3 Mouse
Number of mice that died on each day after infection: day 2 ([23]; 0.2 mg/kg via tail vein): 1 Mouse
Number of mice that died on each day after infection: day 3 ([23]; 0.2 mg/kg via tail vein): 1 Mouse
Number of mice that died on each day after infection: day 4 ([23]; 0.2 mg/kg via tail vein): 0 Mouse
Number of mice that died on each day after infection: day 5 ([23]; 0.2 mg/kg via tail vein): 0 Mouse
Average survival times (Days) ([23]; 0.2 mg/kg via tail vein): 7.8** Days
Number of mice that died on each day after infection: day 1 ([23]; 1 mg/kg via tail vein): 0 Mouse
Number of mice that died on each day after infection: day 2 ([23]; 1 mg/kg via tail vein): 0 Mouse
Number of mice that died on each day after infection: day 3 ([23]; 1 mg/kg via tail vein): 1 Mouse
Number of mice that died on each day after infection: day 4 ([23]; 1 mg/kg via tail vein): 0 Mouse
Number of mice that died on each day after infection: day 5 ([23]; 1 mg/kg via tail vein): 1 Mouse
Average survival times (Days) ([23]; 1 mg/kg via tail vein): 12.0**** Days
Number of mice that died on each day after infection: day 1 ([23]; 5 mg/kg via tail vein): 1 Mouse
Number of mice that died on each day after infection: day 2 ([23]; 5 mg/kg via tail vein): 0 Mouse
Number of mice that died on each day after infection: day 3 ([23]; 5 mg/kg via tail vein): 1 Mouse
Number of mice that died on each day after infection: day 4 ([23]; 5 mg/kg via tail vein): 0 Mouse
Number of mice that died on each day after infection: day 5 ([23]; 5 mg/kg via tail vein): 0 Mouse
Average survival times (Days) ([23]; 5 mg/kg via tail vein): 11.6**** Days
survival time of mice infected with Pseudomonas aeruginosa ([23]; tail vein, observed 14 d): superior to those of the Levofloxacin group

CC(=O)N[C@H](CCCNC(=N)N)C(=O)N[C@H](CCCCN)C(=O)N[C@H](CC(C)C)C(=O)N[C@H](CC(C)C)C(=O)N[C@H](Cc1ccccc1)C(=O)N[C@H](CCCNC(=N)N)C(=O)N[C@H](CC(C)C)C(=O)N[C@H](CCCCN)C(=O)N[C@H](Cc1ccc2ccccc2c1)C(=O)N[C@H](CCCNC(=N)N)C(=O)N[C@H](CCCCN)C(N)=O [LV-3] (Ac-[dR][dK][dL][dL][dF][dR][dL][dK][d2Nal][dR][dK]-NH2)
MIC Candida tropicalis ATCC 750 [1]: 8 µg/mL (≈ 5.01 µM)
MIC Bacillus subtilis ATCC 6633 [2]: 2 µg/mL (≈ 1.25 µM)
MIC Enterococcus ATCC 29212 [3]: 4 µg/mL (≈ 2.51 µM)
MIC Candida krusei ATCC 6258 [4]: 16 µg/mL (≈ 10 µM)
MIC Serratia marcescens ATCC 29021 [5]: 4 µg/mL (≈ 2.51 µM)
MIC Staphylococcus aureus ATCC 25923 [6]: 2 µg/mL (≈ 1.25 µM)
MIC Corynebacterium ATCC 7715 [7]: 4 µg/mL (≈ 2.51 µM)
MIC Candida albicans ATCC MYA-2876 [8]: 8 µg/mL (≈ 5.01 µM)
MIC Candida utilis ATCC 9950 [9]: 8 µg/mL (≈ 5.01 µM)
MIC Salmonella typhimurium ATCC 14028 [10]: 1 µg/mL (≈ 0.627 µM)
MIC Candida glabrata ATCC 15126 [11]: 16 µg/mL (≈ 10 µM)
MIC Pseudomonas aeruginosa ATCC 27853 [12]: 4 µg/mL (≈ 2.51 µM)
MIC Escherichia coli ATCC 25922 [13]: 1 µg/mL (≈ 0.627 µM)
MIC Trichophyton ATCC MYA-4438 [14]: 16 µg/mL (≈ 10 µM)
MIC Klebsiella pneumoniae ATCC 700603 [15]: 2 µg/mL (≈ 1.25 µM)
Trypsin MIC [16]: 1 µg/mL
MIC CREC [17]: 4 µg/mL (≈ 2.51 µM)
MIC CRKP [18]: 4 µg/mL (≈ 2.51 µM)
MIC MRSA [19]: 2 µg/mL (≈ 1.25 µM)
MIC VRE [20]: 8 µg/mL (≈ 5.01 µM)
MIC CRPA [21]: 8 µg/mL (≈ 5.01 µM)
remaining at 12 h, 0.91 mg/mL [22]: 98.7%
Number of mice that died on each day after infection: day 1 ([23]; 1 mg/kg via tail vein): 1 Mouse
Number of mice that died on each day after infection: day 2 ([23]; 1 mg/kg via tail vein): 1 Mouse
Number of mice that died on each day after infection: day 3 ([23]; 1 mg/kg via tail vein): 0 Mouse
Number of mice that died on each day after infection: day 4 ([23]; 1 mg/kg via tail vein): 2 Mouse
Number of mice that died on each day after infection: day 5 ([23]; 1 mg/kg via tail vein): 1 Mouse
Average survival times (Days) ([23]; 1 mg/kg via tail vein): 8.6** Days

CC(=O)N[C@H](CCCNC(=N)N)C(=O)N[C@H](CCCCN)C(=O)N[C@H](CC(C)C)C(=O)N[C@H](CC(C)C)C(=O)N[C@H](Cc1ccc2ccccc2c1)C(=O)N[C@H](CCCNC(=N)N)C(=O)N[C@H](CC(C)C)C(=O)N[C@H](CCCCN)C(=O)N[C@H](Cc1ccccc1)C(=O)N[C@H](CCCNC(=N)N)C(=O)N[C@H](CCCCN)C(N)=O [LV-4] (Ac-[dR][dK][dL][dL][d2Nal][dR][dL][dK][dF][dR][dK]-NH2)
MIC Candida tropicalis ATCC 750 [1]: 16 µg/mL (≈ 10 µM)
MIC Bacillus subtilis ATCC 6633 [2]: 4 µg/mL (≈ 2.51 µM)
MIC Enterococcus ATCC 29212 [3]: 2 µg/mL (≈ 1.25 µM)
MIC Candida krusei ATCC 6258 [4]: 16 µg/mL (≈ 10 µM)
MIC Serratia marcescens ATCC 29021 [5]: 2 µg/mL (≈ 1.25 µM)
MIC Staphylococcus aureus ATCC 25923 [6]: 1 µg/mL (≈ 0.627 µM)
MIC Corynebacterium ATCC 7715 [7]: 2 µg/mL (≈ 1.25 µM)
MIC Candida albicans ATCC MYA-2876 [8]: 8 µg/mL (≈ 5.01 µM)
MIC Candida utilis ATCC 9950 [9]: 8 µg/mL (≈ 5.01 µM)
MIC Salmonella typhimurium ATCC 14028 [10]: 2 µg/mL (≈ 1.25 µM)
MIC Candida glabrata ATCC 15126 [11]: 8 µg/mL (≈ 5.01 µM)
MIC Pseudomonas aeruginosa ATCC 27853 [12]: 2 µg/mL (≈ 1.25 µM)
MIC Escherichia coli ATCC 25922 [13]: 2 µg/mL (≈ 1.25 µM)
MIC Trichophyton ATCC MYA-4438 [14]: 8 µg/mL (≈ 5.01 µM)
MIC Klebsiella pneumoniae ATCC 700603 [15]: 4 µg/mL (≈ 2.51 µM)
Trypsin MIC [16]: 1 µg/mL
MIC CREC [17]: 8 µg/mL (≈ 5.01 µM)
MIC CRKP [18]: 2 µg/mL (≈ 1.25 µM)
MIC MRSA [19]: 8 µg/mL (≈ 5.01 µM)
MIC VRE [20]: 2 µg/mL (≈ 1.25 µM)
MIC CRPA [21]: 4 µg/mL (≈ 2.51 µM)
remaining at 12 h, 0.91 mg/mL [22]: 98.7%
Number of mice that died on each day after infection: day 1 ([23]; 1 mg/kg via tail vein): 0 Mouse
Number of mice that died on each day after infection: day 2 ([23]; 1 mg/kg via tail vein): 1 Mouse
Number of mice that died on each day after infection: day 3 ([23]; 1 mg/kg via tail vein): 0 Mouse
Number of mice that died on each day after infection: day 4 ([23]; 1 mg/kg via tail vein): 2 Mouse
Number of mice that died on each day after infection: day 5 ([23]; 1 mg/kg via tail vein): 1 Mouse
Average survival times (Days) ([23]; 1 mg/kg via tail vein): 9.9**** Days

— US20250304620A1, “ANTIMICROBIAL PEPTIDE AND APPLICATION THEREOF” (priority 2023, published 2025)
